{
  "source": "paper PMC10139132",
  "about": "“Immobilization of M3 Muscarinic Receptor to Rapidly Analyze Drug—Protein Interactions and Bioactive Components in a Natural Plant” (International Journal of Molecular Sciences, 2023)",
  "key": {"[1]": {"test_system": "M3 muscarinic receptor (M3R)", "format": "binding", "conditions": "immobilized M3R column; flow rates 0.4-3.6 mL/min"}, "[2]": {"test_system": "M3 muscarinic receptor (M3R)", "format": "binding"}, "[3]": {"molecular_target": "muscarinic M3 receptor", "conditions": "cited from earlier work"}, "[4]": {"test_system": "immobilized M3R", "assay": "Specificity of the M3R-immobilized column (retention times of ligands)", "format": "binding"}, "[5]": {"test_system": "immobilized M3R", "assay": "Identification of M3R-binding bioactive compounds in Daturae Flos extract on M3R-immobilized column with HPLC-MS", "conditions": "retained peak 2 of Daturae Flos extract, identified by HPLC-MS/MS", "experimental": "The heating under reflux method was used to make the anhydrous extract of […]. In brief, 10 g of dried DF was soaked in 100 mL of water for 0.5 h, boiled for 2 × 1 h, filtered, and concentrated to 10 mL via rotary evaporation at 60 °C under reduced pressure. A solution of 95% ethanol was applied to carry out alcohol sedimentation to reduce the alcohol content of the concentrated extract to 75%. The liquid supernatant was concentrated at 60 °C to obtain an herbal solution of 1.0 g/mL.\nThe M3R-immobilized column was utilized to analyze the active components in the DF extract with an Agilent 1100 chromatographic system. The mobile phase was 5 mM ammonium acetate buffer, the flow rate was 0.3 mL/min, the sample volume was 10 μL, and the detection wavelength was 254 nm. […] It was further analyzed using high performance liquid chromatography (HPLC)–mass spectrometry (MS).\nAn Eclipse XDB-C18 column (2.1 × 150 mm, 3.5 μm) was employed for chromatographic analysis with a 0.1% formic acid solution and methanol (40:60, v/v) as the mobile phase, a flow rate of 0.3 mL/min, and a column temperature of 30 °C. The MS analysis was carried out in both negative and positive modes with a scan range of 100–2000 amu, a nebulizing gas pressure of 30 psi, a flow rate of 8.0 L/min, and a dry gas temperature of […], respectively."}, "[6]": {"conditions": "phosphate buffer 20 mM pH 7.4, flow rate 0.2 mL/min, injection 10 μL"}},
  "note": "Where a name gives a salt, the structure may show the parent alone.",
  "data": [
    {"smiles": "CN1[C@@H]2CC[C@H]1C[C@@H](OC(=O)C(CO)c1ccccc1)C2", "note": "(stereo partly shown) [Atropine sulfate, atropine sulfate]", "values": [
      {"measurement": "kd by the Peak Profiling Method (dissociation rate constant)", "setting": "[1]", "result": "0.238 ± 0.00283", "unit": "s⁻¹"},
      {"measurement": "KA by Frontal Analysis (association constant)", "setting": "[2]", "result": "(3.71 ± 0.03) × 10^4 M^−1"}
    ]},
    {"smiles": "CN1[C@@H]2CC(OC(=O)[C@H](CO)c3ccccc3)C[C@H]1[C@@H]1O[C@@H]12.Cl", "note": "(single isomer, unassigned; (-)) [(−)-Scopolamine hydrochloride]", "values": [
      {"measurement": "kd by the Radioligand Binding Assay", "setting": "[3]", "result": "0.00517 ± 0.0005", "unit": "s⁻¹"},
      {"measurement": "KA by Frontal Analysis (association constant)", "setting": "[2]", "result": "(2.39 ± 0.03) × 10^4 M^−1"}
    ]},
    {"smiles": "CC[C@@H]1C(=O)OC[C@@H]1Cc1cncn1C", "note": "[Pilocarpine]", "values": [
      {"measurement": "retention time on the M3R-immobilized column", "setting": "[4]; [6]", "result": 5.4, "unit": "min"}
    ]},
    {"smiles": "CN1[C@@H]2CC[C@H]1C[C@@H](OC(=O)[C@H](CO)c1ccccc1)C2", "note": "[Hyoscyamine, hyoscyamine]", "values": [
      {"measurement": "binding to M3R of compounds from the DF extract", "setting": "[5]", "result": "bind to M3R"}
    ]},
    {"smiles": "O=N[O-].[Na+]", "note": "[sodium nitrite, Sodium nitrite]", "values": [
      {"measurement": "retention time on the M3R-immobilized column", "setting": "[4]; pH 7.4", "result": 1.1, "unit": "min"}
    ]},
    {"smiles": "CN1[C@@H]2C[C@@H](OC(=O)[C@H](CO)c3ccccc3)C[C@H]1[C@@H]1O[C@@H]12", "note": "[scopolamine]", "values": [
      {"measurement": "binding to M3R of compounds from the DF extract", "setting": "[5]", "result": "bind to M3R"}
    ]},
    {"smiles": "CCCCC(=O)N(Cc1ccc(-c2ccccc2-c2nnn[nH]2)cc1)[C@H](C(=O)O)C(C)C", "note": "[Valsartan]", "values": [
      {"measurement": "specific binding on the M3R-immobilized column", "setting": "[4]; judged from retention time vs system void time", "result": "no specific binding occurred"},
      {"measurement": "retention time on the M3R-immobilized column", "setting": "[4]; [6]", "result": 2.3, "unit": "min"}
    ]}
  ]
}
